From patent publication US20240083949A1, “CELL PENETRATING PEPTIDE COMPOSITIONS AND METHODS THEREOF” (The Regents of the University of California, priority 2022, published 2024)
“Also recorded” adds a separate entry of the source. Starred links: 1 amine or outer side, 2 acyl side, 3 side chain; linkers in the order of their positions; H or OH if unused. Positions of bridges follow the written chain, without caps; N, C: chain ends. Non-standard residues stand in square brackets, D forms with d. Residues, ends and D or L forms follow the SMILES beside them. Triazole bridges read from a SMILES are 1,4-linked. ξ: configuration not given here. *: point of attachment. RhodamineB = CCN(CC)c1ccc2c(-c3ccccc3C(=O)*)c3ccc(=[N+](CC)CC)cc-3oc2c1; X1 = Nc1ccn([C@@H]2O[C@H](COC(=O)CCC(=O)*)[C@@H](O)C2(F)F)c(=O)n1; Lys(N3) = [N-]=[N+]=NCCCC[C@H](N)C(=O)O; ξLys(N3) = [N-]=[N+]=NCCCCC(N)C(=O)O; NMeGABA = CN(CCCC(=O)[*:2])[*:1]; dPra = C#CC[C@@H](N)C(=O)O; Pra = C#CC[C@H](N)C(=O)O

Tests used:
FIBCD1-KO U87 cell line = settings: 500 nM, FIBCD1-KO U87 cells, crystal violet
Excerpt: (§1) Crystal violet staining is a cell viability test used to determine if a drug or molecule is killing cells based on the difference in cell number from the untreated control. U87 cells are an adherent cell line if they are alive and healthy, they attach securely to the bottom of the petri dish. Herein we passaged U87 cells into a 96-well plate and made quadruplets for each concentration of the drug we planned to use. After staining the cells that remained after treatment with both the drug and the EPP6-GEM conjugate, the cells were then photographed with a cell phone and compared to the control wells (FIGS. 12A-13C).

U87 cells [1] = settings: 500 nM, crystal violet
Excerpt: as §1

U87 = test: Confocal microscopy for internalization of EPP6-GEM; format: cell-based, human; settings: 500 nM, U87 cells
Method: After purification of this conjugate, EPP6-GEM was dissolved in DMSO and diluted to 500 nM in full media (DMEM) and administered to the immortalized glioblastoma cell line U87. These cells were monitored using Confocal Microscopy for internalization of the conjugate. FIGS. 11A-11C show three images of U87 cells with different combinations of dyes internalized. […] EPP6-GEM has been outfitted with a Rhodamine B dye. […] Cell viability experiments were carried out to determine if the conjugate can kill cells at a similar rate to the free drug or at an improved rate.

U87 cells [2] = test: Temperature control comparison experiment (RB-EPP6 uptake at 37° C. and 4° C.); format: cell-based, human; settings: 500 nM, 1 h
Method: (§2) Confocal Imaging experiments. To image the cells, a Zeiss 880 inverted confocal laser scanning microscope (Carl Zeiss, Germany) was used. Image acquisition and analyses were carried out using the manufacturer's software (ZEN, Carl Zeiss). Quantification of fluorescence intensity in single cells was performed using Fiji software.
Temperature control comparison experiment. U87 cells were kept in the cold room for half an hour before incubated with RB-EPP 6. After that, cells were incubated with RB-EPP 6 at 500 nM at 4° C. Cells in the control group were incubated at 37° C. After 1 h, cells were wash with fresh medium once respectively before confocal imaging.

U87 cells [3] = test: Colocalization of RB-EPP6 with mEmerald-caveolin and mEmerald-clathrin; format: cell-based, human; settings: transfected U87 cells, confocal
Method: as §2
(§3) Plasmid transfection assays. 300 k U87 cells were seeded in the 35×10 mm dish for overnight culture. Plasmids (caveolin, 75 ng; clathrin, 100 ng; rab5, 100 ng; rab7a, 10 ng; caveolin-1 CRISPR/Cas9 KO, 3 μg; FIBCD1 CRISPR/Cas9 KO, 3 ug; Control CRISPR, 3 ug) were diluted with Plasmid Transfection Medium (sc-108062) to 50 μl. UltraCruz Transfection Reagent (Santa Cruz Biotechnology) was also diluted with Plasmid Transfection Medium to 50 μl. Plasmids and transfection reagent were mixed well and kept at room temperature for 20 min. Replace the cells with PS free medium and add the mixture to the cells, culture for another 24 h.

U87 cells [4] = test: Confocal imaging of Dye-EPP uptake in U87 cells; format: cell-based, human; settings: RB-tagged EPPs, U87 cells, confocal imaging, ranking among EPP1-7
Method: as §2
Dye-EPP incubation. For general incubation, 300 k U87 cells were seeded in full medium containing 10% FBS and 1% PS in a 35×10 mm petri dish. The cells were incubated overnight in full medium. Stock solution of Dye-EPPs were made in DMSO to reach a concentration of 500 μM. Fresh cell culture medium was used to dilute the stock solution to 500 nM and replace the old medium on day 2. Cells were incubated with RB-EPPs for different time periods, followed by a one-time wash with phenol-free fresh culture medium before measurements.
Concentration gradient experiment. U87 Cells were incubated with RB-EPP 6 at different concentrations (20 nM, 200 nM, 2 μM, 20 μM, 50 μM and 100 μM). After wash with fresh medium once cells were examined by confocal imaging.

MDCK cells = settings: MDCK monolayer, trans-well, three hours
Method: (§4) MDCK transwell assay. 200 k MDCK cells were seeded in 200 μl in complete growth media to the apical side of a transwell insert (12-well 8 μm pore size Transwell-65 mm). In addition, 1 ml complete growth media is added to the basolateral chamber. […] Incubate the plate for 2-3 days at 37° C. with 5% CO2. The electrical resistance of MDCK transwell inserts was measured using EVOM Epithelial Voltohmmeter to measure the integrity of tight junctions the following two days. On day 3, serum free media was used to wash both the apical (200 μl) and basolateral (1 ml) wells three times. Cells were kept in a 37° C./5% CO2 cell incubator equilibrating for 15 min.
(§5) The assay was carried out in both apical to basolateral and basolateral to apical direction. […] For the assay with apical to basolateral direction, the apical chamber was replaced with 200 μl testing compounds. For the assay with basolateral to apical direction, the basolateral chamber was replaced with 1 ml testing compounds. Both plates were incubated in the cell culture incubator for 3 h. After that, 80 μl of the samples were collected from each chamber for RB fluorescence intensity reading using a Synergy H1 microplate reader.

U87 cells [5] = test: Intracellular trafficking of EPP6 conjugates (endosome markers, organelle trackers, time series, EB staining); format: cell-based, human
Method: Time series experiment. U87 Cells were incubated with RB-EPP 6 at 500 nM for 1 h. After wash with fresh medium once, the cells were kept in the 5% CO2 incubator at 37° C. for different time durations (1 h, 2 h, 6 h and 24 h) before confocal imaging.
Organelle tracker colocalization experiment. Stock solution of trackers for mitochondria, lysosome and ER were diluted with cell culture medium into 100 nM, 500 nM and 4 μM respectively. RB-EPP 6 was added into each working solution at 500 nM. U87 cells were incubated with the both trackers and RB-EPP 6 for 1 h and then washed once before confocal imaging.
as §3
Ethidium bromide (EB) staining. U87 cells were incubated with 2 μg/ml EB with or without the conjugation of EPP6 for an hour, 3 hours and 6 hours respectively. After 1 h and the cells were washed with fresh phenol-free media once before confocal imaging.
Statistical analysis. Pearson's correlation coefficient was used to calculate correlation between RB and tracker channels in the organelle tracker experiment. Graph generation and statistical analyses were performed using Fiji software.

U87 cells [6] = test: RB-EPP6 uptake after caveolin CRISPR knockout; format: cell-based, human; settings: data not shown
Method: as §3

[7] = Octanol-water partition assay; format: physicochemical
Method: Octanol-water partition assay. For each RB-EPP, pre-mix 250 μl of octanol with 250 μl of water in a 1.5 ml centrifuge tube. 2 μl of RB-EPP was added to the solution at the concentration of 500 μM. After vortex the mixture, centrifuge at the highest speed for 10 min to separate the octanol and water phases. Samples were collected from both phases and quantified by the Analytical HPLC separately.

[8] = MDCK, MDCK monolayer, trans-well, three hours of incubation, 10 μM
Method: as §4, §5

Lipid binding assay = settings: liposomes, RB-EPP6 1 nM to 10 μM
Method: Lipid binding assay. 95% egg PC, 5% nitrobenzoxadiazole (NBD) were added to 1% cholesterol, PE, PG, ganglioside, SM and PA to make liposomes individually. RB-EPP 6 was diluted with HEPES buffer to different concentrations, ranging from 1 nM to 10 μM. For each lipid type, 400 μl liposomes of 50 μg/ml were added to 400 μl of each RB-EPP 6 concentration. The mixture was incubated at room temperature for 15 min. 80 μl of each condition was collected to measure the fluorescence intensity of NBD suing the Synergy H1 microplate reader.

Compound	cell killing compared with free drug (FIBCD1-KO U87 cell line)	cell killing compared with free drug (U87 cells [1])	internalization (Rhodamine B signal) (U87)	uptake at low temperature (U87 cells [2])	colocalization with mEmerald-caveolin (U87 cells [3])	colocalization with mEmerald-clathrin (U87 cells [3])	ability to enter the cells (intracellular fluorescence) (U87 cells [4])	Papp relative to RB-TAT (MDCK cells)	localization in early endosomes (Rab5) (U87 cells [5]; EGFP-Rab5, after 15-min)	trafficking into mitochondria or endoplasmic reticulum (U87 cells [5]; MitoTracker, ERTracker)	localization in lysosomes (LysoTracker) (U87 cells [5]; after 3 hours)	retention in Rab7a+ vesicles (U87 cells [5]; after 4 hours)	remaining intracellular signal (U87 cells [5]; after 24 hours)	endosomal escape to cytosol (U87 cells [5]; imaging)	time to traffic into late endosomes (U87 cells [5]; mEmerald-Rab7a) [min]	uptake after CRISPR caveolin (U87 cells [6])	hydrophobicity (octanol partitioning) [7]	Papp [8] [×10⁻⁶ cm/s]	interaction with lipid components (Lipid binding assay)
CCN(CC)c1ccc2c(-c3ccccc3C(=O)N(C)CCCC(=O)N[C@@H](CCCCNC(=O)CCC(=O)OC[C@H]3O[C@@H](n4ccc(N)nc4=O)C(F)(F)[C@@H]3O)C(=O)N[C@@H]3Cc4cn(nn4)CCCCC(C(N)=O)NC(=O)[C@H](CO)NC(=O)[C@H](Cc4ccc(O)cc4)NC(=O)[C@H](Cc4ccc(O)cc4)NC(=O)[C@H](CO)NC(=O)[C@H](Cc4ccc(O)cc4)NC3=O)c3ccc(=[N+](CC)CC)cc-3oc2c1 (some centres unmarked) [EPP6-GEM] (RhodamineB-[NMeGABA]K(X1)[dPra]YSYYS[ξLys(N3)]-NH2; triazole 3-9)	cannot perform significantly better than the free drug	can kill the cells more effectively than the free drug	some internalization is occurring	–	–	–	–	–	–	–	–	–	–	–	–	–	–	–	–
CCN(CC)c1ccc2c(-c3ccccc3C(=O)N(C)CCCC(=O)N[C@H]3Cc4cn(nn4)CCCC[C@@H](C(N)=O)NC(=O)[C@H](CO)NC(=O)[C@H](Cc4ccc(O)cc4)NC(=O)[C@H](Cc4ccc(O)cc4)NC(=O)[C@H](CO)NC(=O)[C@H](Cc4ccc(O)cc4)NC3=O)c3ccc(=[N+](CC)CC)cc-3oc2c1 [RB-EPP6, RB-cy(YSYYS)] (RhodamineB-[NMeGABA][Pra]YSYYS[Lys(N3)]-NH2; triazole 2-8; N-terminus and C-terminus assumed)	–	–	much higher signals	no RB-EPP6 uptake; also recorded: no fluorescence signal in the cells	significantly overlapped	no overlap	best performing	more than twice that of RB-TAT	appeared in distinct Rab5-coated vesicles	did not traffic into the mitochondria or the endoplasmic reticulum	some RB-EPP6 signals appeared in lysosomes	a significant amount of RB-EPP6 remained inside Rab7a+vesicles	some signals remained	could escape from the endosomes and enter the cytosol	≤ 30	decreased	hydrophilic	5.25	no appreciable interaction; also recorded: no significant interaction
